{
  "source": "patent US6914045B2",
  "about": "“Glycopeptide antibiotics” (Wyeth Holdings Corporation, priority 2001, dated 2005)",
  "experiment_in_all_cases": "in vitro antibacterial evaluation, MIC by broth dilution",
  "type_in_all_cases": "cell-based",
  "key": {"[1]": {"test_system": "Enterococcus sp.", "conditions": "broth dilution, 18 hours at 35° C.; for MIC Enterococcus faecalis (ATCC 29212): strain ATCC 29212; for MIC Enterococcus faecalis (GC 2242): strain GC 2242; for MIC Enterococcus faecium (GC 2243): strain GC 2243; for MIC Enterococcus faecalis (GC 2691): strain GC 2691; for MIC Enterococcus faecalis (GC 3059): strain GC 3059; for MIC Enterococcus faecalis (GC 4552): strain GC 4552; for MIC Enterococcus faecalis (GC 4553): strain GC 4553; for MIC Enterococcus faecalis (GC 4554): strain GC 4554; for MIC Enterococcus faecium (GC 4556): strain GC 4556; for MIC Enterococcus faecium (GC 4557): strain GC 4557; for MIC Enterococcus avium (GC 4558): strain GC 4558; for MIC Enterococcus faecalis (GC 6189): strain GC 6189", "method_in_brief": "(§1)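 MIC, the lowest antibiotic concentration preventing growth, was read across 64-0.06 μg/mL with 5×10^5 CFU/mL inoculum. Method followed NCCLS M7-A2 broth dilution using Mueller-Hinton II; Gram-positive strains covered recent methicillin-, penicillin- and/or vancomycin-resistant clinical isolates.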"}, "[2]": {"test_system": "Streptococcus sp.", "conditions": "broth dilution, 18 hours at 35° C.; for MIC Streptococcus pneumoniae (ATCC 6301): strain ATCC 6301; for MIC Streptococcus pneumoniae (GC 1894): strain GC 1894; for MIC Streptococcus pyogenes (GC 4563): strain GC 4563; for MIC Streptococcus agalactiae (GC 4564): strain GC 4564; for MIC Streptococcus pneumoniae (GC 4565): strain GC 4565", "method_in_brief": "as §1"}, "[3]": {"test_system": "Staphylococcus sp.", "conditions": "broth dilution, 18 hours at 35° C.; for MIC Staphylococcus aureus (GC 1131): strain GC 1131", "method_in_brief": "as §1"}, "[4]": {"test_system": "Escherichia coli", "method_in_brief": "as §1"}},
  "data": [
    {"smiles": "CC(c1ccccc1)C1NC(=O)CNC(=O)C(CO)NC(=O)C(C(O)C2CNC(=N)N2C2OC(CO)C(O)C(O)C2O)NC(=O)C(C(O)C2CNC(=N)N2)NC(=O)C(Cc2ccc(OC3OC(CO)C(OC4OC5COC(c6ccc(-c7cccs7)cc6)OC5C(O)C4O)C(O)C3O)cc2)NC1=O", "note": "(stereo not drawn) [Example 163]", "values": [
      {"measurement": "MIC Enterococcus faecalis (ATCC 29212)", "setting": "[1]; inoculum 5×10^5 CFU/mL", "result": 8, "unit": "µg/mL"},
      {"measurement": "MIC Enterococcus faecalis (GC 2242)", "setting": "[1]; inoculum 5×10^5 CFU/mL", "result": 4, "unit": "µg/mL"},
      {"measurement": "MIC Enterococcus faecium (GC 2243)", "setting": "[1]; inoculum 5×10^5 CFU/mL", "result": 8, "unit": "µg/mL"},
      {"measurement": "MIC Enterococcus faecalis (GC 2691)", "setting": "[1]; inoculum 5×10^5 CFU/mL", "result": 4, "unit": "µg/mL"},
      {"measurement": "MIC Enterococcus faecalis (GC 3059)", "setting": "[1]; inoculum 5×10^5 CFU/mL", "result": 8, "unit": "µg/mL"},
      {"measurement": "MIC Enterococcus faecalis (GC 4552)", "setting": "[1]; inoculum 5×10^5 CFU/mL", "result": 8, "unit": "µg/mL"},
      {"measurement": "MIC Enterococcus faecalis (GC 4553)", "setting": "[1]; inoculum 5×10^5 CFU/mL", "result": 4, "unit": "µg/mL"},
      {"measurement": "MIC Enterococcus faecalis (GC 4554)", "setting": "[1]; inoculum 5×10^5 CFU/mL", "result": 8, "unit": "µg/mL"},
      {"measurement": "MIC Enterococcus faecium (GC 4556)", "setting": "[1]; inoculum 5×10^5 CFU/mL", "result": 4, "unit": "µg/mL"},
      {"measurement": "MIC Enterococcus faecium (GC 4557)", "setting": "[1]; inoculum 5×10^5 CFU/mL", "result": 8, "unit": "µg/mL"},
      {"measurement": "MIC Enterococcus avium (GC 4558)", "setting": "[1]; inoculum 5×10^5 CFU/mL", "result": 4, "unit": "µg/mL"},
      {"measurement": "MIC Enterococcus faecalis (GC 6189)", "setting": "[1]; inoculum 5×10^5 CFU/mL", "result": 4, "unit": "µg/mL"},
      {"measurement": "MIC Enterococcus faecalis (ATCC 29212)", "setting": "[1]", "result": 8, "unit": "µg/mL"},
      {"measurement": "MIC Enterococcus faecalis (GC 2242)", "setting": "[1]", "result": 4, "unit": "µg/mL"},
      {"measurement": "MIC Enterococcus faecium (GC 2243)", "setting": "[1]", "result": 8, "unit": "µg/mL"},
      {"measurement": "MIC Enterococcus faecalis (GC 2691)", "setting": "[1]", "result": 4, "unit": "µg/mL"},
      {"measurement": "MIC Enterococcus faecalis (GC 3059)", "setting": "[1]", "result": 8, "unit": "µg/mL"},
      {"measurement": "MIC Enterococcus faecalis (GC 4552)", "setting": "[1]", "result": 8, "unit": "µg/mL"},
      {"measurement": "MIC Enterococcus faecalis (GC 4553)", "setting": "[1]", "result": 4, "unit": "µg/mL"},
      {"measurement": "MIC Enterococcus faecalis (GC 4554)", "setting": "[1]", "result": 8, "unit": "µg/mL"},
      {"measurement": "MIC Enterococcus faecium (GC 4556)", "setting": "[1]", "result": 4, "unit": "µg/mL"},
      {"measurement": "MIC Enterococcus faecium (GC 4557)", "setting": "[1]", "result": 8, "unit": "µg/mL"},
      {"measurement": "MIC Enterococcus avium (GC 4558)", "setting": "[1]", "result": 4, "unit": "µg/mL"},
      {"measurement": "MIC Enterococcus faecalis (GC 6189)", "setting": "[1]", "result": 4, "unit": "µg/mL"},
      {"measurement": "MIC Streptococcus pneumoniae (ATCC 6301)", "setting": "[2]; inoculum 5×10^5 CFU/mL", "result": "<0.5", "unit": "µg/mL"},
      {"measurement": "MIC Streptococcus pneumoniae (GC 1894)", "setting": "[2]; inoculum 5×10^5 CFU/mL", "result": "<0.5", "unit": "µg/mL"},
      {"measurement": "MIC Streptococcus pyogenes (GC 4563)", "setting": "[2]; inoculum 5×10^5 CFU/mL", "result": "<0.5", "unit": "µg/mL"},
      {"measurement": "MIC Streptococcus agalactiae (GC 4564)", "setting": "[2]; inoculum 5×10^5 CFU/mL", "result": "<0.5", "unit": "µg/mL"},
      {"measurement": "MIC Streptococcus pneumoniae (GC 4565)", "setting": "[2]; inoculum 5×10^5 CFU/mL", "result": 1, "unit": "µg/mL"},
      {"measurement": "MIC Streptococcus pneumoniae (ATCC 6301)", "setting": "[2]", "result": "<0.5", "unit": "µg/mL"},
      {"measurement": "MIC Streptococcus pneumoniae (GC 1894)", "setting": "[2]", "result": "<0.5", "unit": "µg/mL"},
      {"measurement": "MIC Streptococcus pyogenes (GC 4563)", "setting": "[2]", "result": "<0.5", "unit": "µg/mL"},
      {"measurement": "MIC Streptococcus agalactiae (GC 4564)", "setting": "[2]", "result": "<0.5", "unit": "µg/mL"},
      {"measurement": "MIC Streptococcus pneumoniae (GC 4565)", "setting": "[2]", "result": 1, "unit": "µg/mL"},
      {"measurement": "MIC Staphylococcus aureus (GC 1131)", "setting": "[3]; inoculum 5×10^5 CFU/mL", "result": 4, "unit": "µg/mL"},
      {"measurement": "MIC Staphylococcus aureus (ATCC 29213)", "setting": "[3]; strain ATCC 29213", "result": 4, "unit": "µg/mL"},
      {"measurement": "MIC Staphylococcus aureus (GC 1131)", "setting": "[3]", "result": 4, "unit": "µg/mL"},
      {"measurement": "MIC Staphylococcus aureus (GC 3051)", "setting": "[3]; strain GC 3051", "result": 8, "unit": "µg/mL"},
      {"measurement": "MIC Staphylococcus aureus (GC 3053)", "setting": "[3]; strain GC 3053", "result": 8, "unit": "µg/mL"},
      {"measurement": "MIC Staphylococcus aureus (GC 4541)", "setting": "[3]; strain GC 4541", "result": 4, "unit": "µg/mL"},
      {"measurement": "MIC Staphylococcus aureus (GC 4542)", "setting": "[3]; strain GC 4542", "result": 4, "unit": "µg/mL"},
      {"measurement": "MIC Staphylococcus aureus-SMITH (GC 4543)", "setting": "[3]; strain GC 4543", "result": 1, "unit": "µg/mL"},
      {"measurement": "MIC Staphylococcus aureus (GC 4544)", "setting": "[3]; strain GC 4544", "result": 4, "unit": "µg/mL"},
      {"measurement": "MIC Staphylococcus aureus (GC 4545)", "setting": "[3]; strain GC 4545", "result": 4, "unit": "µg/mL"},
      {"measurement": "MIC Staphylococcus haemolyticus (GC 4546)", "setting": "[3]; strain GC 4546", "result": 4, "unit": "µg/mL"},
      {"measurement": "MIC Coagulase Negative Staphylococcus (GC 4547)", "setting": "[3]; strain GC 4547", "result": 8, "unit": "µg/mL"},
      {"measurement": "MIC Coagulase Negative Staphylococcus (GC 4548)", "setting": "[3]; strain GC 4548", "result": 1, "unit": "µg/mL"},
      {"measurement": "MIC Coagulase Negative Staphylococcus (GC 4549)", "setting": "[3]; strain GC 4549", "result": 4, "unit": "µg/mL"},
      {"measurement": "MIC Coagulase Negative Staphylococcus (GC 4551)", "setting": "[3]; strain GC 4551", "result": 2, "unit": "µg/mL"},
      {"measurement": "MIC Coagulase Negative Staphylococcus (GC 6257)", "setting": "[3]; strain GC 6257", "result": 2, "unit": "µg/mL"},
      {"measurement": "MIC Staphylococcus aureus-SMITH (GC 4543)", "setting": "[3]; strain SMITH GC 4543", "result": 1, "unit": "µg/mL"},
      {"measurement": "MIC Escherichia coli (ATCC 25922)", "setting": "[4]; strain ATCC 25922, 18 hours at 35° C.", "result": ">64", "unit": "µg/mL"},
      {"measurement": "MIC Escherichia coli (GC 4559)", "setting": "[4]; strain GC 4559, 18 hours at 35° C.", "result": 64, "unit": "µg/mL"},
      {"measurement": "MIC Escherichia coli (GC 4560)", "setting": "[4]; strain GC 4560, 18 hours at 35° C.", "result": 8, "unit": "µg/mL"}
    ]}
  ]
}
